These results are taken from ChEMBL document CHEMBL5291721, “A preclinical secondary pharmacology resource illuminates target-adverse drug reaction associations of marketed drugs” (Nat Commun, 2023).

Test [1] has as its target Voltage-dependent N-type calcium channel subunit alpha-1B (Rattus norvegicus, UniProt Q02294). It is filed as functional.
Test [2] deals with Cannabinoid receptor 1 (Homo sapiens, UniProt P21554). It counts as functional.
Test [3] deals with T1, Gastric inhibitory polypeptide receptor (Homo sapiens, UniProt P48546).
T1 sequence (P48546 whole entry): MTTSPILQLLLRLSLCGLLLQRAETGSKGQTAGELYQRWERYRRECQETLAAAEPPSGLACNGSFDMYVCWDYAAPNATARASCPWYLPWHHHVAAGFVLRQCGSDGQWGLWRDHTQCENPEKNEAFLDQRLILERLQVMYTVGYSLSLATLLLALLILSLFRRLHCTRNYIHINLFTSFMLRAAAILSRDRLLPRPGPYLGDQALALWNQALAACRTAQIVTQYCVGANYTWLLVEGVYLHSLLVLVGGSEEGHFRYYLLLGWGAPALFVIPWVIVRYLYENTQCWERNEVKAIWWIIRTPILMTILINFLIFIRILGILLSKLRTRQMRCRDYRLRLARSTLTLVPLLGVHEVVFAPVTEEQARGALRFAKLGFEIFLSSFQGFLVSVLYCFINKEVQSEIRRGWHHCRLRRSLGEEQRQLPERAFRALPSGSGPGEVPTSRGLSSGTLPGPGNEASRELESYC

Test [4] addresses Histamine H2 receptor (Homo sapiens, UniProt P25021).
Test [5] concerns the target 5-hydroxytryptamine receptor 6 (Homo sapiens, UniProt P50406).
The target in test [6] is 5-hydroxytryptamine receptor 7 (Homo sapiens, UniProt P34969).
Sequence of 5-hydroxytryptamine receptor 7 (P34969 whole entry): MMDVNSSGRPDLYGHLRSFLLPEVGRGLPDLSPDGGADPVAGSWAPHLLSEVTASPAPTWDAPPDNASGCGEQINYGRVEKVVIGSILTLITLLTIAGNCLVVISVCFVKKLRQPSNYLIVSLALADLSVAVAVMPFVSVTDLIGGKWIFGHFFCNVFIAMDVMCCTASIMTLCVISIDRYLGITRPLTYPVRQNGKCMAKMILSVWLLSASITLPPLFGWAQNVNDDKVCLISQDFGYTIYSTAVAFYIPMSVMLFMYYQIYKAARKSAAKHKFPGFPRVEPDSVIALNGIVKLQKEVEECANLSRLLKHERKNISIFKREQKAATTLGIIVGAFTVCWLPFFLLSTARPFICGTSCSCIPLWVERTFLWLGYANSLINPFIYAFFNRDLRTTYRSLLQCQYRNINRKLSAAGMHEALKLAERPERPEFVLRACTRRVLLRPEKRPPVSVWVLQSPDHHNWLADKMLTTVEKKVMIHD
For test [7], the target named is T2, Neuropeptide Y receptor type 2 (Homo sapiens, UniProt P49146).
T2 sequence (P49146 whole entry): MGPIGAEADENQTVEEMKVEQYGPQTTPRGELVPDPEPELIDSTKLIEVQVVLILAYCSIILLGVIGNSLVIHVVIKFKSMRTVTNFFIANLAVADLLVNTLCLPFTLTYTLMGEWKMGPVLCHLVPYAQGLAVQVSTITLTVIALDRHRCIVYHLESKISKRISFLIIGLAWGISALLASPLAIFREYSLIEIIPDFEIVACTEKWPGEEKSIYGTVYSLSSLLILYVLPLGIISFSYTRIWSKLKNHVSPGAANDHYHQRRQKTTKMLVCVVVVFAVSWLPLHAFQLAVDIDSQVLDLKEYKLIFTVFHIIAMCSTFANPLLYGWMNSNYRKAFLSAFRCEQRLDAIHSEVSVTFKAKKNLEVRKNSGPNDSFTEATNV

Test [8] addresses Neurotensin receptor type 1 (Homo sapiens, UniProt P30989).
Test [9] deals with Sodium channel protein type 5 subunit alpha (Homo sapiens, UniProt Q14524). It counts as functional, cell-based.
Test [10] deals with T3, Alpha-1A adrenergic receptor (Homo sapiens, UniProt P35348).
T3 sequence (P35348 whole entry): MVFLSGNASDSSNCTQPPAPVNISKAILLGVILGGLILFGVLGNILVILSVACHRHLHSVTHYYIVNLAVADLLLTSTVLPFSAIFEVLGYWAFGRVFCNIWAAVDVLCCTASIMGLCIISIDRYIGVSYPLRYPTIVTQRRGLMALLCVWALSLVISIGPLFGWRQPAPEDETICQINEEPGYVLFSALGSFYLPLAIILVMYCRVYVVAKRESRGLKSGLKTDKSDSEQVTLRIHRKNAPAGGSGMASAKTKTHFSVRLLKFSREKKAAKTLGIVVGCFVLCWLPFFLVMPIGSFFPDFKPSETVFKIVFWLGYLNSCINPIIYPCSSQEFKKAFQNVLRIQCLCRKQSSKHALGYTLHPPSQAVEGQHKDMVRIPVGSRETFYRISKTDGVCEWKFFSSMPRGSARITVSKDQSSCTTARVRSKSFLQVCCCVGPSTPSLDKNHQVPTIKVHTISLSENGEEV

For test [11], the target named is Beta-1 adrenergic receptor (Homo sapiens, UniProt P08588). It counts as functional, cell-based.
Sequence of Beta-1 adrenergic receptor (P08588 whole entry): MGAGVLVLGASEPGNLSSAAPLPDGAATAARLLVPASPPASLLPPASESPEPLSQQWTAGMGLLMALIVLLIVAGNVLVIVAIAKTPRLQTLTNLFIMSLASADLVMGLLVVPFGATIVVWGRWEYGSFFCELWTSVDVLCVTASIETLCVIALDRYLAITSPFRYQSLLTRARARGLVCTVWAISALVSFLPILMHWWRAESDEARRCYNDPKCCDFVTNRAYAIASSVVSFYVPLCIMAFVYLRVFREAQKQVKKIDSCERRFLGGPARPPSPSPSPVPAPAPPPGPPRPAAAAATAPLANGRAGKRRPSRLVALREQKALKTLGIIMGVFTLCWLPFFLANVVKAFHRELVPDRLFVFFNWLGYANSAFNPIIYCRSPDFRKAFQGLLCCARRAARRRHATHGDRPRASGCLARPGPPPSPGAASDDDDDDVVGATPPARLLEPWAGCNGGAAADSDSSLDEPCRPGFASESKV

The structures appear in SMILES notation.
Note: assay procedure not described here.

Sequence of Histamine H2 receptor (P25021 whole entry): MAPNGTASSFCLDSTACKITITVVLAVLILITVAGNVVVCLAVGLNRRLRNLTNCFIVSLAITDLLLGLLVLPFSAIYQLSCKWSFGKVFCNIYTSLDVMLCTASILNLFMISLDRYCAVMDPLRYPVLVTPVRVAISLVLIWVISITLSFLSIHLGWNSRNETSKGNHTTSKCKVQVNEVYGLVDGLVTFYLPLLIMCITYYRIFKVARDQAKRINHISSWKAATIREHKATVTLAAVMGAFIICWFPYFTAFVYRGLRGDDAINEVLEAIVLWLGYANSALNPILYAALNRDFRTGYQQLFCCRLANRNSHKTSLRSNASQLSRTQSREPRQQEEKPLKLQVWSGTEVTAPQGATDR
Sequence of Neurotensin receptor type 1 (P30989 whole entry): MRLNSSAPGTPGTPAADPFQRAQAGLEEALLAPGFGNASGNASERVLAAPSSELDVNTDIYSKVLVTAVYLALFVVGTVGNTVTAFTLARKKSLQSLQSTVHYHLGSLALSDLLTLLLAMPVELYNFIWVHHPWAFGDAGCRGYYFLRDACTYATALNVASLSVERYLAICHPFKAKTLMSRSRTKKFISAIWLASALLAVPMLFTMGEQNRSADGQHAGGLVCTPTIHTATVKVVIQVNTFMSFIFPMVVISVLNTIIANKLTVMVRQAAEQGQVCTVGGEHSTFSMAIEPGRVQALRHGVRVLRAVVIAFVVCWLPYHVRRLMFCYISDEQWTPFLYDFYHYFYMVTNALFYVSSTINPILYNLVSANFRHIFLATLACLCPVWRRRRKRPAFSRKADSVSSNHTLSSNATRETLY
Sequence of Cannabinoid receptor 1 (P21554 whole entry): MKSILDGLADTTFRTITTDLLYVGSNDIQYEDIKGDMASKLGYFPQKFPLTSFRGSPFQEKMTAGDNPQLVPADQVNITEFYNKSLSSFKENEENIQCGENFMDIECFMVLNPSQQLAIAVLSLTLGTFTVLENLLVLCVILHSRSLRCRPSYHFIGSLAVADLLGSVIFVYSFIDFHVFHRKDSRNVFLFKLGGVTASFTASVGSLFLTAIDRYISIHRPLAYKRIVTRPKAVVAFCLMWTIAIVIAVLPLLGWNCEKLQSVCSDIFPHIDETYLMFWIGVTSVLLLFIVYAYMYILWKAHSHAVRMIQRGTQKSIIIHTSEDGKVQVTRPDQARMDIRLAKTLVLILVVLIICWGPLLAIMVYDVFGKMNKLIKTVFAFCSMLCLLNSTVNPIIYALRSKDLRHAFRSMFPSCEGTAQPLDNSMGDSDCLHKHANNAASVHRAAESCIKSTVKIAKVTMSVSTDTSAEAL
Sequence of Voltage-dependent N-type calcium channel subunit alpha-1B (Q02294 whole entry): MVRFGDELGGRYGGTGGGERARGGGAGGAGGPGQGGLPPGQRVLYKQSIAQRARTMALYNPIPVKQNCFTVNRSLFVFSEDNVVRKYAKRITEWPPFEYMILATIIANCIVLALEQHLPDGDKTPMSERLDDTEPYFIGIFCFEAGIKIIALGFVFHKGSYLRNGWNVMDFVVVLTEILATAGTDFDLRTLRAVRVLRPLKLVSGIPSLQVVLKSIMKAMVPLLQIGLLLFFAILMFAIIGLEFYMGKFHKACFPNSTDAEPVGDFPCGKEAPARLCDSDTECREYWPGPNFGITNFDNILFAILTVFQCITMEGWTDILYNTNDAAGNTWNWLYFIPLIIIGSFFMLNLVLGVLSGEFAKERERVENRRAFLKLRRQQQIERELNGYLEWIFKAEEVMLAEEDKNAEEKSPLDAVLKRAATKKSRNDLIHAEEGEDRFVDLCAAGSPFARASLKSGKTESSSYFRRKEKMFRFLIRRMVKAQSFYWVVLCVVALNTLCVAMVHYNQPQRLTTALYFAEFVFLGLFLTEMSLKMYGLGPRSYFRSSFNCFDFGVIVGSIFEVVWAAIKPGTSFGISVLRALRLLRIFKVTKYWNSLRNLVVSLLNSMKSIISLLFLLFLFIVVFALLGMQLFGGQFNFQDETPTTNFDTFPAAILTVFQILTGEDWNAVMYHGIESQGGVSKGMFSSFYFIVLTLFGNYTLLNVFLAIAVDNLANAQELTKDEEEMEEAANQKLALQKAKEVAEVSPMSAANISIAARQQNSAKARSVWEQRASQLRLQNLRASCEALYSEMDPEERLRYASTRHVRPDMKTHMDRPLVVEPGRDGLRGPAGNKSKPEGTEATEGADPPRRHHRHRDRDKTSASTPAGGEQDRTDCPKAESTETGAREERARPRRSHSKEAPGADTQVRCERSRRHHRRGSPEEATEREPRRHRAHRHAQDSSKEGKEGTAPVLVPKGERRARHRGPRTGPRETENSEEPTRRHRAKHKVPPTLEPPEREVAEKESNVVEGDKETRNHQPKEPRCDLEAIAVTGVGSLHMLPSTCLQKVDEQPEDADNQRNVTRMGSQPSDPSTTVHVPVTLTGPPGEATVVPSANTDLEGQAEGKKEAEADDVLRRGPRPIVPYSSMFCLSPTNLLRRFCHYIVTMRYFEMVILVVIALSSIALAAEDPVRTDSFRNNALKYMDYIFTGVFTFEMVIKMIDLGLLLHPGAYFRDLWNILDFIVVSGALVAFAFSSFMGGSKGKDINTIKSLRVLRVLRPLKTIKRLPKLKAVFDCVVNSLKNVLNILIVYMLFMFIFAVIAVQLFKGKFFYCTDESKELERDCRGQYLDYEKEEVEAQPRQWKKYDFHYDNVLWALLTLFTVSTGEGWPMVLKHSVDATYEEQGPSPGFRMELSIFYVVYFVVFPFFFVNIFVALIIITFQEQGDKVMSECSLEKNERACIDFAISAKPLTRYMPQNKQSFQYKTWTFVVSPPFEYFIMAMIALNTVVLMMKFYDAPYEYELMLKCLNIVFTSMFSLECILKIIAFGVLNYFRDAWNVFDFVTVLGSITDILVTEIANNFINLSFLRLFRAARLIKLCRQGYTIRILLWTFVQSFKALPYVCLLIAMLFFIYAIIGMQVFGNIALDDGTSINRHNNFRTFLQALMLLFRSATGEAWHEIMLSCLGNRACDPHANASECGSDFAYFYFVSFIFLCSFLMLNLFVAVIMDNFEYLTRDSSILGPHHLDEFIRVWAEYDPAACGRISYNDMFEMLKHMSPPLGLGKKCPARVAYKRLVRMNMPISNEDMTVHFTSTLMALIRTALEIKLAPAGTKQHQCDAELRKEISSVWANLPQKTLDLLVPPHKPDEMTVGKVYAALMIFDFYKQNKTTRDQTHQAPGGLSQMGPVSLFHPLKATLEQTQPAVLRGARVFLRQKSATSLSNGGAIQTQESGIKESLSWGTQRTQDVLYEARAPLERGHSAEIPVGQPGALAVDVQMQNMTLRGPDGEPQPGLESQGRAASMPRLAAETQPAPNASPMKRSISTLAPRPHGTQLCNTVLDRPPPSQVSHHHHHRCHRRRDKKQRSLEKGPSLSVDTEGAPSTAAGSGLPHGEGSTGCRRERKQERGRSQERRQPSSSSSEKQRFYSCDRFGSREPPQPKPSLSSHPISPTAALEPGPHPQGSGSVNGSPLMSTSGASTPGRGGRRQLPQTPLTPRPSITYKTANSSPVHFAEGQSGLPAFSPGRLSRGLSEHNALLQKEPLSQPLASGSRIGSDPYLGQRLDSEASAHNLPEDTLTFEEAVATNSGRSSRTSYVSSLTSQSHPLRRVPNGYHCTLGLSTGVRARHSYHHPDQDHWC
Sequence of 5-hydroxytryptamine receptor 6 (P50406 whole entry): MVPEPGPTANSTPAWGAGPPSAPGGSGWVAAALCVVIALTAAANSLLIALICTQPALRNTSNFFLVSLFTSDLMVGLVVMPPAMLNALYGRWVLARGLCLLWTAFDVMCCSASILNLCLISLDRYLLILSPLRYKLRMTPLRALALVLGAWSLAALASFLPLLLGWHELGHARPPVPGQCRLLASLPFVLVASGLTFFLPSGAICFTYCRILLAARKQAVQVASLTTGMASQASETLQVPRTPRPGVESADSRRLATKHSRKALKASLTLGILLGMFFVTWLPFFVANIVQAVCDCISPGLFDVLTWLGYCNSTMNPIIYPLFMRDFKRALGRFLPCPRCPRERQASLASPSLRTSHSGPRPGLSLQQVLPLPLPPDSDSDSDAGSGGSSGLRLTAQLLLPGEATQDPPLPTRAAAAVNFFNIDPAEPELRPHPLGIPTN

Turning to `COc1ccc2c3c1O[C@H]1[C@@H](O)C=C[C@H]4[C@@H](C2)N(C)CC[C@@]341` [CODEINE], the AC50 in test [1] is greater than 10 µM; in [2], greater than 10 µM; in test [3] it was greater than 30 µM; in test [4], greater than 10 µM; in test [5] it was greater than 10 µM; in [6] it was greater than 10 µM. In addition, the AC50 in [7] is greater than 30 µM; in test [8], greater than 30 µM; in [9] it was greater than 30 µM; in [10] it was greater than 10 µM.

With `Cn1c(=O)c2c(ncn2CC2OCCO2)n(C)c1=O` [DOXOFYLLINE], in test [11], the AC50 was greater than 30 µM.

On to `COc1ccc(CCN(C)CCCC(C#N)(c2cc(OC)c(OC)c(OC)c2)C(C)C)cc1OC` (stereo unspecified) [GALLOPAMIL], for which the AC50 in test [11] is greater than 30 µM.

In turn, `CC(C)C(=O)c1c(C(C)C)nn2ccccc12` [IBUDILAST] registered an AC50 in test [11] greater than 30 µM.

Regarding `CCC(C(=O)O)c1ccc(N2Cc3ccccc3C2=O)cc1` (stereo unspecified) [INDOBUFEN], the AC50 in test [11] was greater than 30 µM.

On to `CCOC(=O)[N-]c1cn(N2CCOCC2)n[o+]1` [MOLSIDOMINE], for which the AC50 in test [11] was greater than 30 µM.

On to `COc1cc2c(N)nc(N3CCN(C(=O)OCC(C)(C)O)CC3)nc2c(OC)c1OC` [TRIMAZOSIN], for which the AC50 in test [11] is greater than 30 µM.
